In publication PMC9598883, “An Optimized Workflow for the Discovery of New Antimicrobial Compounds Targeting Bacterial RNA Polymerase Complex Formation” (Antibiotics, 2022):
In brackets after ≈: the same amount, converted by molar mass.

Key:
[1] = test system: B. subtilis (WB800N strain); assay: Bacterial growth inhibition assay, B. subtilis; type: cell-based, Bacillus subtilis; settings: for inhibition at 100 µM: Bacillus subtilis, 8 h, read-out: Growth Inhibition at 100 μM (8 h) B. subtilis
Description: (§1) To avoid the characterization of hit compounds lacking antibacterial activity, we subsequently tested the ability of the 18 ELISA-validated compounds to inhibit bacterial growth, using the previously identified indol-3-yl-urea derivative 4 as a reference. Two nonpathogenic bacteria were employed for this assay: the gram-positive B. subtilis (WB800N strain) and the gram-negative E. coli (DH10T1R strain). […] The remaining twelve compounds might have been unable to cross the bacterial membrane or were modified and/or extruded from the cell. […] This additional assay, which was conducted on a wild-type (W303) rather than on the hyperpermeable Δerg6 strain, is not part of our streamlined antibiotic discovery workflow and was only aimed at verifying the cytotoxicity prediction reliability of yBRET.
(§2) Growth inhibition tests and minimum inhibitory concentration (MIC) assay on the gram-positive B. subtilis WB800N strain (nprE aprE epr bpr mpr::ble nprB::bsr Δvpr wprA::hyg cm::neo; NeoR) (MoBiTec GmbH, Lotzestraße, Göttingen, Germany) and on the gram-negative nonpathogenic E. coli DH10 T1R strain (F-mcrA Δ(mrr-hsdRMS-mcrBC) Φ80lacZ ΔM15 ΔlacX74 recA1 endA1 araD139Δ(ara, leu)7697 galU galK λ-rpsL nupG) (Invitrogen, Waltham, MA, USA) were performed as described in Sartini et al..
(§3) For growth inhibition assays, bacteria were grown to exponential phase (OD600 = 0.5–0.6) and then diluted 100-fold with LB. PMBN (2 μg/mL) for E. coli was added at this stage. Yeast strain W303-1A (leu2-3,112 trp1-1 can1-100 ura3-1 ade2-1 his3-11,15) was grown at 30 °C in YPD to an OD600 of 0.5. The growth of the bacterial (or yeast) cells was monitored for 8 h in the presence of the candidate compounds dissolved in DMSO (final concentration of 5%) or an equivalent amount of DMSO as a negative control (“vehicle”). Growth inhibition assays were conducted in triplicate in 96-well plates (Microtest Plate 96 Well, F, flat base, Sarstedt, Nümbrecht, North Rhine-Westphalia, Germany) by monitoring cell growth (OD600) every 30 min with a microplate reader (TriStar^2 LB 942; Berthold Technologies, Bad Wildbad, Baden-Württemberg, Germany) for bacteria and every 1 h for yeast.

E. coli (DH10T1R strain) = assay: Bacterial growth inhibition assay, E. coli; type: cell-based, Escherichia coli; settings: for inhibition at 100 µM: 8 h, in the presence of PMBN (2 μg/mL)
Description: as §1, §2, §3

[2] = test system: Saccharomyces cerevisiae (W303); assay: Yeast growth inhibition assay; type: cell-based; settings: wild-type W303
Description: as §1, §3

B. subtilis WB800N = assay: MIC assay, B. subtilis; type: cell-based, Bacillus subtilis; settings: for MIC: Bacillus subtilis, WB800N
Procedure: as §2
(§4) Antimicrobial activity was determined by means of the minimum inhibitory concentration (MIC) assay, according to the Clinical & Laboratory Standards Institute (CLSI) guidelines described in ([37]). The assays were performed in 96-well microplates in 20% MH broth in PBS. A 2.5 × 10^5 CFU/mL medium-phase bacterial suspension in 20% MH broth was used and the microplates were incubated at 37 °C for 24 h. […] The results were derived from at least three independent experiments conducted in duplicate.

E. coli DH10T1R = assay: MIC assay, E. coli; type: cell-based, Escherichia coli; settings: in the presence of PMBN (2 μg/mL)
Procedure: as §2, §4

[3] = target: T1, β′–σ^70 PPI (GST-β′ aa 1–334 / His-tagged σ^70) (Escherichia coli, UniProt P0A8T7); assay: Competitive ELISA of β′–σ^70 interaction; type: binding, E. coli; settings: for IC50: read-out: Binding Inhibition IC50 ± SD; for inhibition at 100 µM: fixed concentration of 100 μM, read-out: β′–σ70 binding inhibition, ELISA 100 μM (percentage inhibition ± SD)
T1 construct: 50 nM GST-β′ (aa 1–334); made in house; host or cells: bacterial expression (pET28-b / pGEX4-T3 vectors)
T1 sequence (P0A8T7 1-334): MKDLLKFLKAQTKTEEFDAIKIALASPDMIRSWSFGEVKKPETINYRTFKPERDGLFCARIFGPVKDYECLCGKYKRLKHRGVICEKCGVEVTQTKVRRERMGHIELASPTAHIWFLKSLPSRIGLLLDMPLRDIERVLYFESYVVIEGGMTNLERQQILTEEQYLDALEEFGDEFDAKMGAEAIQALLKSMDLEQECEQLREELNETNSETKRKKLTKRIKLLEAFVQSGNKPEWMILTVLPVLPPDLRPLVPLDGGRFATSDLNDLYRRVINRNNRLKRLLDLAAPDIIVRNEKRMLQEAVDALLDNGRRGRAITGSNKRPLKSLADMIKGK
Procedure: In this in vitro set-up, individual candidate molecules (each at 100 µM concentration) were incubated with β’ before the addition of σ^70 and assessment of interaction reconstitution with an antibody directed against the σ^70 fusion tag. Eighteen of the 28 yBRET-positive compounds were thus confirmed as true inhibitors of the β’–σ^70 PPI (i.e., they inhibited the interaction by at least 50%); their structures and percentage inhibition values are reported in Table S1.
The production of recombinant proteins, the standard ELISA, and the “reverse” ELISA were performed following the protocols described in Sartini et al.. The full-length sequence coding for E. coli σ^70 was cloned into a modified pET28-b in-frame with an N-terminal 6xHis tag-sequence and was expressed in LB medium for 3 h at 30 °C following addition of 1 mM isopropyl-β-D-thiogalactopyranoside (IPTG).
The RNAP β’ 1–334 aa. coding sequence was cloned into a modified pGEX4-T3 expression vector (Amersham Biosciences, Amersham, Buckinghamshire, England) and was expressed for 24 h at 20 °C under auto-induction conditions (Auto Induction Medium, AIM-LB broth base; ForMedium™, Swaffham, Norfolk, England). Due to the failure of affinity purification on a glutathione-Sepharose column, the unfractionated whole cell supernatant was used directly as a GST-tagged source for ELISA.
For the standard ELISA, His-tagged- σ^70 was diluted to 250 nM with PBS and 100 μL of the resulting solution was added to the wells of SpectraPlate-96 HB microtitre plates (PerkinElmer, Waltham, MA, USA). After an overnight incubation at 4 °C, the wells were washed with PBS and blocked at room temperature for 2 h with 400 μL of 1% (w/v) BSA dissolved in PBS. Subsequently, 100 μL of supernatant diluted in PBS containing 50 nM GST-β′ (aa 1–334) was incubated for 10 min at 37 °C with 2.5 μL of each compound dissolved in DMSO at different concentrations (or with 2.5 μL of DMSO). The addition first of the polyclonal rabbit anti-GST primary antibody (1:2000 in PBS) (Abcam, Cambridge, Cambridgeshire, England) and after incubation, of the horseradish peroxidase-conjugated goat anti-rabbit secondary antibody diluted 1:20,000 in PBS (Invitrogen™ by Life Technologies™, Carlsbad, CA, USA) allowed the detection of the interaction using the substrate for 2,2’-Azino-bis (3-Ethylbenzthiazoline-6-Sulphonic Acid) peroxidase (ABTS; SeraCare Life Sciences, Milford, MA, USA). The signal resulting from the oxidation of ABTS was determined by measuring the absorbance at 415 nm with a microplate reader (iMark™ Microplate Absorbance Reader; Bio-Rad, Hercules, CA, USA).

[4] = target: T2, E. coli RNAPc with recombinant σ^70 (holoenzyme) (Escherichia coli, UniProt P0A8T7); assay: Fluorescence-detected single-round in vitro transcription assay; type: biochemical; settings: fluorescence-based assay
T2 construct: purchased New England BioLabs
T2 sequence (P0A8T7 whole entry): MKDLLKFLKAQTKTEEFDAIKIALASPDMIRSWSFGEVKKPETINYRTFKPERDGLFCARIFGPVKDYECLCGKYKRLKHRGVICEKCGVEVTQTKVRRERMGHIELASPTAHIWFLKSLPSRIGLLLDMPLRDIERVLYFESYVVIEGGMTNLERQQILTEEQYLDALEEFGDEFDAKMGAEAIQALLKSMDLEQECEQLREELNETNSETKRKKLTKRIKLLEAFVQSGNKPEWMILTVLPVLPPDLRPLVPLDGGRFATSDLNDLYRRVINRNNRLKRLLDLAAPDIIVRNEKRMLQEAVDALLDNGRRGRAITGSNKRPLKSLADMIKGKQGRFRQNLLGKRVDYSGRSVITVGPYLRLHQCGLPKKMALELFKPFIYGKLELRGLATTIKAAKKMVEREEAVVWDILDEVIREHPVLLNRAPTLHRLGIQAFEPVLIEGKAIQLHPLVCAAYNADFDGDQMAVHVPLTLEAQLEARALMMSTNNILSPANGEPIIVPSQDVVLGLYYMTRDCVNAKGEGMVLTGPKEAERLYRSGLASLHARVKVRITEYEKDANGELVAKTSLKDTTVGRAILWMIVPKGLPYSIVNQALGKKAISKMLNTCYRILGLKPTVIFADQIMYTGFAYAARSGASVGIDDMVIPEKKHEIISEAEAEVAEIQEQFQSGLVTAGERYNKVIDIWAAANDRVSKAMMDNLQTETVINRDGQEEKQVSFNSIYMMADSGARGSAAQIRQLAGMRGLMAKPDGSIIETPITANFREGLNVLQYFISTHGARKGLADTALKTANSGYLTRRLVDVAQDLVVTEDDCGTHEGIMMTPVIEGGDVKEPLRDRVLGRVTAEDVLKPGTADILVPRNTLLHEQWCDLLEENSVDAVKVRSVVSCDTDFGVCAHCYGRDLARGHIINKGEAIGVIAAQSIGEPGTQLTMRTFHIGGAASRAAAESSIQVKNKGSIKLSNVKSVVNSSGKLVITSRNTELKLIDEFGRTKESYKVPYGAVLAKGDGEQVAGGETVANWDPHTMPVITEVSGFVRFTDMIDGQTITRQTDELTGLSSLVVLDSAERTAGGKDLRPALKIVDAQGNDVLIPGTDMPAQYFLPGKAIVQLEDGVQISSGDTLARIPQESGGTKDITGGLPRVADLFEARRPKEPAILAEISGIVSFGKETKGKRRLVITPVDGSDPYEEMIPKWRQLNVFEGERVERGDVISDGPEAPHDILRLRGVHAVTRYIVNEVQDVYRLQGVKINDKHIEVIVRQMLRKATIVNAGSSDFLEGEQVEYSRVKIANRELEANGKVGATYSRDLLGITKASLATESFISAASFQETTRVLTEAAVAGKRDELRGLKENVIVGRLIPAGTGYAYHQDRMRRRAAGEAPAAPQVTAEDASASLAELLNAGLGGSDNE
T2 sequence (P0A8V2 whole entry partner): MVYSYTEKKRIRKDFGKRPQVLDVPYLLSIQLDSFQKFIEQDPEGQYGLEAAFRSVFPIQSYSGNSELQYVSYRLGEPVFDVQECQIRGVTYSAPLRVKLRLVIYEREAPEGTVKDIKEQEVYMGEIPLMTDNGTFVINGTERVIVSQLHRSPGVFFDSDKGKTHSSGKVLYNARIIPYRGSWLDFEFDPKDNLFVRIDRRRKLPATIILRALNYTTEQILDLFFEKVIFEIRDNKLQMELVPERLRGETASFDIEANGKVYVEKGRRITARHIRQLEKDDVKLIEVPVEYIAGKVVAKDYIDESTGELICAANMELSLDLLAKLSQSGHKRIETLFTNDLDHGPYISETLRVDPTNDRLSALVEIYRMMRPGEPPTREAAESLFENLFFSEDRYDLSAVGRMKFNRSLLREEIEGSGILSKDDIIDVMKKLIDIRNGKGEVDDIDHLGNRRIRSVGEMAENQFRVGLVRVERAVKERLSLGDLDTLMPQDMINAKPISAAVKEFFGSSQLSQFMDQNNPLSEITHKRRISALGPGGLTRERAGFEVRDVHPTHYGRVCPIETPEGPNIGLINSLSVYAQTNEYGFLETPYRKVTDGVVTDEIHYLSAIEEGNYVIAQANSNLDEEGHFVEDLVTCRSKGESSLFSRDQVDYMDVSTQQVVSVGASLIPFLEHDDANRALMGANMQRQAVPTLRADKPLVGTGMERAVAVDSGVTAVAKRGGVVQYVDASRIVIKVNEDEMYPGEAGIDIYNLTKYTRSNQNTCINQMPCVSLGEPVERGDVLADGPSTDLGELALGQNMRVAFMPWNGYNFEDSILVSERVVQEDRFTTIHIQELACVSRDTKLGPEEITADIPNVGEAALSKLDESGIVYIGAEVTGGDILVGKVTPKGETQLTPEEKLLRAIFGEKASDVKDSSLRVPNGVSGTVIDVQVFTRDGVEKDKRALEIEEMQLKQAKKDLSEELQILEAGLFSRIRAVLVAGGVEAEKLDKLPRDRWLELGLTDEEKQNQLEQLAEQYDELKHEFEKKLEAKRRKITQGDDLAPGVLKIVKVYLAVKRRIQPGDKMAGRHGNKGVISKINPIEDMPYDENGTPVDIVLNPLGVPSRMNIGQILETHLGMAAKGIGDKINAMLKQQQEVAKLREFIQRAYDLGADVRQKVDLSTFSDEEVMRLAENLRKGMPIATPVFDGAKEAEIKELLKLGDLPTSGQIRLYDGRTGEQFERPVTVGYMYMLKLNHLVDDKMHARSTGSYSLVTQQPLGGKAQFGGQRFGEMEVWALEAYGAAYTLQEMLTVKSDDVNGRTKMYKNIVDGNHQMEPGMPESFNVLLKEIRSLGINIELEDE
T2 sequence (P0A7Z4 whole entry partner): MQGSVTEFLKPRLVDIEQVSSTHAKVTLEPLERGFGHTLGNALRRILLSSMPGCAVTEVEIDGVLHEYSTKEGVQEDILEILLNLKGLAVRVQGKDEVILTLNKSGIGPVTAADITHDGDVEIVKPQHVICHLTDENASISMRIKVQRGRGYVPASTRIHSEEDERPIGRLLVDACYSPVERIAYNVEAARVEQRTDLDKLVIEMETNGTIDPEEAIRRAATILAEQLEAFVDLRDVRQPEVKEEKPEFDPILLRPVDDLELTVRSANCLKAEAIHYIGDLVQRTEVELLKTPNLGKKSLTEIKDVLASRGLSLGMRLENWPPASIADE
T2 sequence (P0A800 whole entry partner): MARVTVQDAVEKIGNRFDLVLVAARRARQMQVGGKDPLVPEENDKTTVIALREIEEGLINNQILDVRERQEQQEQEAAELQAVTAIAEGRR
Procedure: A single-round transcription assay was first performed at a fixed, 100 µM concentration.
A fluorescence-detected RNAP inhibition assay with the profluorescent substrate γ-[2′(2-benzothiazoyl)-6′-hydroxybenzothiazole)-ATP (γ-BBT-ATP, Jena Bioscience, Jena, Thuringia, Germany) was performed to verify the ability of the selected compounds to inhibit the specific transcription activity of bacterial RNA polymerase, using E. coli RNAPc (New England BioLabs, Ipswich, MA, USA) and recombinant His-tagged-σ^70 for holoenzyme reconstitution.
Two nM of a circular DNA template (pDSP) [38] were then added to a final volume of 7 µL and the resulting reaction mixture was incubated at 37 °C for 15 min. The pDSP template is a 6135 bp vector harboring two identical λpR promoters upstream of engineered, cytosine-lacking (C-less) DNA regions. When CTP is omitted from the reaction mixture, transcription reinitiation is prevented, and this allows for the single-round transcription of 24 nt and 70 nt long RNAs. […]
Ten µL of the reaction was transferred to a black 384-well plate (PE384fw_ProxiPlate) and fluorescence emission was read with Spark 10M, Tecan (Männedorf, canton of Zürich, Switzerland) (excitation wavelength 422 nm; emission wavelength 590 nm).

β′ subunit (RNAP) = test system: β′ subunit (RNAP); set-up: method as in PMID 26764017, PMID 23751807; settings: cited from earlier work

| Structure (SMILES) | inhibition at 100 µM [1] | B. subtilis growth inhibition ([1]; concentrations ≤ 100 µM) | inhibition at 100 µM (E. coli (DH10T1R strain); Escherichia coli) | E. coli growth inhibition (E. coli (DH10T1R strain); concentrations ≤ 100 µM) | Growth Inhibition at 100 μM (8 h) S. cerevisiae [2] | MIC (B. subtilis WB800N) | MIC E. coli (E. coli DH10T1R) | IC50 ([3]; dose–response ELISA) | inhibition at 100 µM [3] | IC50 [4] | Concentration interfering with in vitro transcription initiation (β′ subunit (RNAP)) | Duration of antibacterial activity, E. coli (E. coli (DH10T1R strain); 50 µM) | E. coli growth inhibition over time (E. coli (DH10T1R strain); 50 µM) | inhibition at 10 µM (E. coli (DH10T1R strain); Escherichia coli, 10 µM, 8 h observation, with PMBN, read-out: E. coli growth inhibition at lowest concentration) | MIC B. subtilis (B. subtilis WB800N) | B. subtilis growth inhibition over time ([1]; 50 µM) | Duration of antibacterial activity, B. subtilis ([1]; 50 µM) | B. subtilis growth inhibition over time ([1]; only at 100 µM) | Fold less potent than reference compound 4 (binding inhibition IC50) ([3]; dose–response ELISA) |
| --- | --- | --- | --- | --- | --- | --- | --- | --- | --- | --- | --- | --- | --- | --- | --- | --- | --- | --- | --- |
| COc1ccc(-c2ccc(-c3oc4cc(OC(C)=O)ccc4c3OC(C)=O)cc2)cc1OC [Compound 9] | 24% | failed to exert any appreciable inhibitory activity | 24% | failed to exert any appreciable inhibitory activity | 0% | > 100 µM | >100 µM | 13.9 ± 1.86 µM | 100% | 71 ± 2.46 µM |  |  |  |  |  |  |  |  |  |
| COc1cc(OC)c2c(-c3ccc(Cl)cc3)c[nH]c2c1C(=O)NNC(=O)c1c(OC)cc(OC)c2c(-c3ccc(Cl)cc3)c[nH]c12 [GKL003] |  |  |  |  |  |  |  |  |  |  | nanomolar concentrations |  |  |  |  |  |  |  |  |
| N#Cc1cc2cnccc2c2[nH]c3ncc(F)cc3c12 [Compound 7] | 13% |  | 66% |  | 7% | > 100 µM | 0.78 µM | 8.56 ± 1.82 µM | 86 ± 9% |  |  | 4 h | almost completely inhibited | 38% | did not inhibit B. subtilis growth |  |  |  |  |
| O=C(CSc1nc2ccccc2[nH]1)c1ccc2[nH]c3ncc(Cl)cc3c2c1 [Compound 19] | 37% |  | 0% |  | 0% | 100 µM (≈ 39.3 µg/mL) | >100 µM | 40 ± 4.2 µM | 94 ± 1% | 25.7 ± 1.85 µM |  |  |  |  |  | almost completely inhibited | 4 h | significantly inhibited | 5 fold |
